Experimental data published in the RepoRT retention time repository (doi:10.1016/j.chroma.2022.462867).

How the values were obtained:
Conditions in all cases: stereoisomer not certain
[1] = RP, Phenomenex Kinetex PS C18, 150 × 3 mm, 2.6 µm, 40 °C, 0.35 mL/min, estimated dead time 1.9 min; A: water + 5 mM ammonium acetate, pH 5; B: methanol; gradient (min/%B) 0/5 20/100 25/100 30/5
[2] = RP, Phenomenex Kinetex EVO C18, 150 × 3 mm, 2.6 µm, 40 °C, 0.35 mL/min, estimated dead time 1.9 min; A: water + 5 mM ammonium formate, pH 5; B: acetonitrile; gradient (min/%B) 0/5 20/100 25/100 30/5
[3] = RP, Phenomenex Kinetex EVO C18, 150 × 3 mm, 2.6 µm, 40 °C, 0.35 mL/min, estimated dead time 1.9 min; A: water + 0.1% formic acid, pH 3; B: methanol; gradient (min/%B) 0/5 20/100 25/100 30/5
[4] = HILIC, Phenomenex Kinetex HILIC, 150 × 3 mm, 2.6 µm, 40 °C, 0.35 mL/min, estimated dead time 1.9 min; A: water + 0.1% formic acid, pH 3; B: methanol; gradient (min/%B) 0/95 20/0 25/0 30/95

LC retention time [1] [min]	LC retention time [2] [min]	LC retention time [3] [min]	LC retention time [4] [min]	SMILES
3.85	–	–	–	NC(=O)c1cccnc1 [Nicotinamide]
15	10.6	14.3	–	CC(=O)OCC(=O)C1(O)CCC2C3CCC4=CC(=O)CCC4(C)C3C(O)CC21C (stereo not given) [Hydrocortisonacetate]
9.84	5.73	8.84	–	c1ccc2nccnc2c1 [Quinoxaline]
6.79	3.27	5.29	–	Cn1c(=O)c2[nH]cnc2n(C)c1=O [Theophylline]
12	8.86	11.4	–	CCN=C1NC(Cl)NC(NC(C)(C)C#N)N1 (stereo not given) [Cyanazine]
15.9	11.2	14.9	–	C#CC1(O)CCC2C3CCC4=CC(=O)CCC4C3CCC21C (stereo not given) [Norethindrone]
9.64	5.92	8.85	–	OC(Cn1cncn1)(Cn1cncn1)c1ccc(F)cc1F [fluconazole]
7.7	4.45	6.85	–	CCCc1cc(=O)[nH]c(=S)[nH]1 [Propylthiouracil]
15.1	12.5	15.5	–	c1ccc2c(c1)[nH]c1ccccc12 [Carbazole]
13.8	9.77	4.62	–	NS(=O)(=O)c1cc2c(cc1Cl)NCNS2(=O)=O [Hydrochlorothiazide]
17.8	13.3	16.9	–	CC(=O)C1CCC2C3CCC4=CC(=O)CCC4(C)C3CCC12C (stereo not given) [Progesterone]
16.2	12.5	–	–	CSC1N=C(NC(C)C)NC(NC(C)C)=N1 [Prometryn]
13	–	14.1	–	O=C(O)c1ccc2ccccc2c1 [2-naphthoic acid]
9.81	6.87	9.19	–	NS(=O)(=O)c1cc(C2(O)NC(=O)c3ccccc32)ccc1Cl (stereo not given) [Chlorthalidone]
13.2	–	12.6	–	NC(=O)N1c2ccccc2C=Cc2ccccc21 [Carbamazepine]
15.5	13	15.7	–	C1=Cc2ccccc2Nc2ccccc21 [Iminostilbene]
16.6	–	–	–	CSC1N=C(NC2CC2)NC(NC(C)(C)C)N1 (stereo not given) [Irgarol]
15	9.72	14	–	CC12CCC(=O)C=C1CCC1C2C(O)CC2(C)C(C(=O)CO)CCC12 (stereo not given) [Corticosterone]
13.9	–	13.6	–	CCN=C1NC(NC(C)C)=NC(Cl)N1 (stereo not given) [Atrazine]
11.5	7.96	11.2	–	c1ccc2scnc2c1 [Benzothiazole]
–	–	–	4	CN1CC(=O)NC1=N [Creatinine]

LC retention time [1] [min]	LC retention time [2] [min]	LC retention time [3] [min]	LC retention time [4] [min]	SMILES
13.5	8.73	–	–	CCCCC(=O)N(Cc1ccc(-c2ccccc2-c2nn[nH]n2)cc1)C(C(=O)O)C(C)C (stereo not given) [Valsartan]
9.47	5.28	12.2	–	COC(=O)C1CCCCC1S(=O)(=O)NC(=O)NC1=NC(OC)NC(C)N1 (stereo not given) [Metsulfuron-methyl]
16	12.5	16.2	–	COc1ccc(Cl)cc1C(=O)NCCc1ccc(S(=O)(=O)NC(=O)NC2CCCCC2)cc1 [Glibenclamide]
16.5	12.8	–	–	CCC1=C(C)CN(C(=O)NCCc2ccc(S(=O)(=O)NC(=O)NC3CCC(C)CC3)cc2)C1=O (stereo not given) [Glimepiride]
15.8	11.2	15.2	–	CC12CCC3c4ccc(O)cc4CCC3C1CCC2O (stereo not drawn) [17beta estradiol]
12.4	8.6	11.9	–	CCN=C1NC(=NCC)NC(Cl)N1 (stereo not given) [Simazine]
7.93	3.88	6.69	–	Cn1c(=O)c2c(ncn2C)n(C)c1=O [Caffeine]
15	11.6	15.2	–	CSc1nc2ccccc2s1 [2-(Methylthio)benzothiazole]
10.4	6.42	9.78	–	Cc1ccc2n[nH]nc2c1 [5-Methyl-1H-benzotriazole]
8.12	5	7.35	–	c1ccc2n[nH]nc2c1 [1H-Benzotriazole]
19.2	15.2	19.4	–	Oc1ccc2ccccc2c1N=Nc1ccccc1 [Sudan I]
19.1	14.9	–	–	CCC(C)(C)C(=O)OC1CC(C)C=C2C=CC(C)C(CCC3CC(O)CC(=O)O3)C21 (stereo not given) [Simvastatin]
15.7	11.7	15.1	–	CC12CCC3c4ccc(O)cc4CCC3C1CCC2=O (stereo not given) [Estrone]
9.04	–	7.82	–	Cc1cc(=O)n(-c2ccccc2)n1C [Phenazone (Antipyrine)]
14.1	10.6	13.9	–	CN(C)C(=O)Nc1ccc(Cl)c(Cl)c1 [Diuron]
20.3	16.9	–	–	CC(C)C1=CC2=CCC3C(C)(C(=O)O)CCCC3(C)C2CC1 (stereo not given) [Abietic acid]
14.6	9.45	14.5	–	CCCCC1=NC2(CCCC2)C(=O)N1Cc1ccc(-c2ccccc2-c2nn[nH]n2)cc1 [Irbesartan]
6.53	4.4	5.39	–	Nc1ccc(S(=O)(=O)Nc2ccccn2)cc1 [Sulfapyridine]
16.7	13.6	16.8	–	O=C1Nc2ccc(Cl)cc2C(C#CC2CC2)(C(F)(F)F)O1 (stereo not given) [Efavirenz]
7.93	5.18	6.77	–	Cc1cc(C)nc(NS(=O)(=O)c2ccc(N)cc2)n1 [Sulfamethazine]

SMILES	LC retention time [1] [min]	LC retention time [2] [min]	LC retention time [3] [min]	LC retention time [4] [min]
O=[N+]([O-])c1ccc2ccc3cccc4ccc1c2c34 [1-Nitropyrene]	18.4	14.8	–	–
Nc1cnn(-c2ccccc2)c(=O)c1Cl [Chloridazon]	9.65	6.18	8.88	–
Nc1nc(N)nc(N)n1 [Melamine]	2.33	–	–	–
CN(C)C(=O)Nc1ccc(Cl)cc1 [Monuron]	11.9	8.56	11.5	–
CCc1cccc(C)c1N(C(=O)CCl)C(C)COC (stereo not given) [Metolachlor]	16.6	12.9	16.3	–
Oc1ccc2ccc3cccc4ccc1c2c34 [1-hydroxypyrene]	16.7	13.1	–	–
CC(O)(CS(=O)(=O)c1ccc(F)cc1)C(=O)Nc1ccc(C#N)c(C(F)(F)F)c1 (stereo not given) [Bicalutamide]	14.6	12.2	14.4	–
CCc1cccc(CC)c1N(COC)C(=O)CCl [Alachlor]	16.4	13	16.2	–
CCC(=O)Nc1ccc(Cl)c(Cl)c1 [Propanil]	15	11.8	14.9	–
CCCN(CCC)c1c([N+](=O)[O-])cc(C(F)(F)F)cc1[N+](=O)[O-] [Trifluralin]	19	16.5	16.9	–
CNC(=O)C=C(C)OP(=O)(OC)OC [Monocrotophos]	7.86	4.17	6.95	–
CCOP(=O)(OCC)OCC [Triethyl phosphate]	11.2	6.52	10.5	–
CC(C)COP(=O)(OCC(C)C)OCC(C)C [Tri-isobutyl phosphate]	18	14	17.8	–
CCCSP(=O)(OCC)SCCC [Ethoprop]	16.5	–	–	–
Nc1ccc(Cl)cc1 [4-Chloroaniline]	10.3	8.88	5.28	–
CCOP(=S)(OCC)Oc1nc(Cl)c(Cl)cc1Cl [Chlorpyrifos]	18.8	15.9	–	–
N#Cc1nn(-c2c(Cl)cc(C(F)(F)F)cc2Cl)c(N)c1S(=O)C(F)(F)F (stereo not given) [Fipronil]	16.6	–	16.7	–
O=P(Oc1ccccc1)(Oc1ccccc1)Oc1ccccc1 [Triphenylphosphate]	17.3	13.8	17.2	–
CCOP(=S)(OCC)Oc1ccc([N+](=O)[O-])cc1 [Parathion]	16.7	14.2	16.8	–
Cc1cccc(C)c1N(Cn1cccn1)C(=O)CCl [Metazachlor]	14.1	10.6	13.7	–
